These results are taken from PubChem BioAssay AID1259407 (Chemical Carcinogenesis Research Information System (CCRIS), 2018).

Active and inactive are the calls of the source. No rule for the calls is given here.

The test system of the data set is CCRIS mutagenicity, Ames/micronucleus/aberration tests. Briefly: CCRIS mutagenicity studies.
Setting [1] is: Test System: AMES SALMONELLA TYPHIMURIUM, Strain/Indicator: TA98, Metabolic Activation: NONE, Method: PREINCUBATION
Setting [2] is: Test System: AMES SALMONELLA TYPHIMURIUM, Strain/Indicator: TA100, Metabolic Activation: NONE, Method: PREINCUBATION

As for `COP(N)(=O)SC` (stereo not given), the mutagenic call by setting is: (Test System: Ames Salmonella typhimurium, Strain/Indicator: TA98, Metabolic Activation: None, Method: Preincubation) “active; positive”; (Test System: Ames Salmonella typhimurium, Strain/Indicator: TA98, Metabolic Activation: Rat, Liver, S-9 (10%), Aroclor 1254, Method: Preincubation) “active; positive”; (Test System: Ames Salmonella typhimurium, Strain/Indicator: TA100, Metabolic Activation: None, Method: Preincubation) “inactive; negative”; (Test System: Ames Salmonella typhimurium, Strain/Indicator: TA100, Metabolic Activation: Rat, Liver, S-9 (10%), Aroclor 1254, Method: Preincubation) “inactive; negative”.

As for `CN(C)CCNC(=O)c1ccc2ccc3cccnc3c2n1`, the mutagenic call (Test System: AMES SALMONELLA TYPHIMURIUM, Strain/Indicator: TA1537, Metabolic Activation: NONE, Method: STANDARD PLATE) was “active; positive”.

Turning to `Nc1ccc(C(=O)O)cc1`, the mutagenic call runs as follows: (Test System: AMES SALMONELLA TYPHIMURIUM, Strain/Indicator: TA98, Metabolic Activation: HAMSTER, LIVER, S-9, AROCLOR 1254 (10%), Method: PREINCUBATION) “inactive; negative”; under setting [1], “inactive; negative”; (Test System: AMES SALMONELLA TYPHIMURIUM, Strain/Indicator: TA98, Metabolic Activation: RAT, LIVER, S-9, AROCLOR 1254 (10%), Method: PREINCUBATION) “inactive; negative”; (Test System: AMES SALMONELLA TYPHIMURIUM, Strain/Indicator: TA100, Metabolic Activation: HAMSTER, LIVER, S-9, AROCLOR 1254 (10%), Method: PREINCUBATION) “inactive; negative”; under setting [2], “inactive; negative”; (Test System: AMES SALMONELLA TYPHIMURIUM, Strain/Indicator: TA100, Metabolic Activation: RAT, LIVER, S-9, AROCLOR 1254 (10%), Method: PREINCUBATION) “inactive; negative”. Besides, the mutagenic call runs as follows: (Test System: AMES SALMONELLA TYPHIMURIUM, Strain/Indicator: TA1535, Metabolic Activation: HAMSTER, LIVER, S-9, AROCLOR 1254 (10%), Method: PREINCUBATION) “inactive; negative”; (Test System: AMES SALMONELLA TYPHIMURIUM, Strain/Indicator: TA1535, Metabolic Activation: NONE, Method: PREINCUBATION) “inactive; negative”; (Test System: AMES SALMONELLA TYPHIMURIUM, Strain/Indicator: TA1535, Metabolic Activation: RAT, LIVER, S-9, AROCLOR 1254 (10%), Method: PREINCUBATION) “inactive; negative”; (Test System: AMES SALMONELLA TYPHIMURIUM, Strain/Indicator: TA1537, Metabolic Activation: HAMSTER, LIVER, S-9, AROCLOR 1254 (10%), Method: PREINCUBATION) “inactive; negative”; (Test System: AMES SALMONELLA TYPHIMURIUM, Strain/Indicator: TA1537, Metabolic Activation: NONE, Method: PREINCUBATION) “inactive; negative”; (Test System: AMES SALMONELLA TYPHIMURIUM, Strain/Indicator: TA1537, Metabolic Activation: RAT, LIVER, S-9, AROCLOR 1254 (10%), Method: PREINCUBATION) “inactive; negative”.

Take `Cn1c(N)nc2c3nc(-c4ccccc4)c(-c4ccccc4)nc3ccc21`: under “Test System: AMES SALMONELLA TYPHIMURIUM, Strain/Indicator: TA98, Metabolic Activation: RAT, LIVER, S-9, AROCLOR 1254, Method: STANDARD PLATE”, the mutagenic call was “inactive; negative”.

With `O=[N+]([O-])c1ccc(Oc2c(Cl)cc(Cl)cc2Cl)cc1`, the mutagenic call by setting is: under setting [1], “inactive; negative”; (Test System: AMES SALMONELLA TYPHIMURIUM, Strain/Indicator: TA98, Metabolic Activation: NONE, Method: STANDARD PLATE) “inactive; negative”; (Test System: AMES SALMONELLA TYPHIMURIUM, Strain/Indicator: TA98, Metabolic Activation: RAT LIVER S-9 (10%), PHENOBARBITAL AND 5,6-BENZOFLAVONE, Method: PREINCUBATION) “inactive; negative”; (Test System: AMES SALMONELLA TYPHIMURIUM, Strain/Indicator: TA98, Metabolic Activation: S-9, Method: STANDARD PLATE) “inactive; negative”; under setting [2], “inactive; negative”; (Test System: AMES SALMONELLA TYPHIMURIUM, Strain/Indicator: TA100, Metabolic Activation: NONE, Method: STANDARD PLATE) “inactive; negative”. For the same molecule, the mutagenic call (Test System: AMES SALMONELLA TYPHIMURIUM, Strain/Indicator: TA100, Metabolic Activation: RAT LIVER S-9 (10%), PHENOBARBITAL AND 5,6-BENZOFLAVONE, Method: PREINCUBATION) was “inactive; negative”; the mutagenic call (Test System: AMES SALMONELLA TYPHIMURIUM, Strain/Indicator: TA100, Metabolic Activation: S-9, Method: STANDARD PLATE) was “inactive; negative”; the mutagenic call (Test System: AMES SALMONELLA TYPHIMURIUM, Strain/Indicator: YG1021, Metabolic Activation: NONE, Method: STANDARD PLATE) is “inactive; negative”; the mutagenic call (Test System: AMES SALMONELLA TYPHIMURIUM, Strain/Indicator: YG1021, Metabolic Activation: RAT LIVER S-9 (10%), PHENOBARBITAL AND 5,6-BENZOFLAVONE, Method: PREINCUBATION) is “inactive; negative”; the mutagenic call (Test System: AMES SALMONELLA TYPHIMURIUM, Strain/Indicator: YG1021, Metabolic Activation: RAT, LIVER, S-9, PCB, Method: PREINCUBATION) was “active; positive”; the mutagenic call (Test System: AMES SALMONELLA TYPHIMURIUM, Strain/Indicator: YG1021, Metabolic Activation: S-9, Method: STANDARD PLATE) was “inactive; negative”. Further, the mutagenic call runs as follows: (Test System: AMES SALMONELLA TYPHIMURIUM, Strain/Indicator: YG1024, Metabolic Activation: NONE, Method: PREINCUBATION) “active; positive”; (Test System: AMES SALMONELLA TYPHIMURIUM, Strain/Indicator: YG1024, Metabolic Activation: NONE, Method: STANDARD PLATE) “inactive; negative”; (Test System: AMES SALMONELLA TYPHIMURIUM, Strain/Indicator: YG1024, Metabolic Activation: RAT LIVER S-9 (10%), PHENOBARBITAL AND 5,6-BENZOFLAVONE, Method: PREINCUBATION) “active; positive”; (Test System: AMES SALMONELLA TYPHIMURIUM, Strain/Indicator: YG1024, Metabolic Activation: RAT, LIVER, S-9, PHENOBARBITAL AND 5,6-BENZOFLAVONE, Method: PREINCUBATION) “active; positive”; (Test System: AMES SALMONELLA TYPHIMURIUM, Strain/Indicator: YG1024, Metabolic Activation: S-9, Method: STANDARD PLATE) “inactive; negative”; (Test System: AMES SALMONELLA TYPHIMURIUM, Strain/Indicator: YG1026, Metabolic Activation: NONE, Method: STANDARD PLATE) “inactive; negative”. Besides, the mutagenic call reads like this: (Test System: AMES SALMONELLA TYPHIMURIUM, Strain/Indicator: YG1026, Metabolic Activation: RAT LIVER S-9 (10%), PHENOBARBITAL AND 5,6-BENZOFLAVONE, Method: PREINCUBATION) “inactive; negative”; (Test System: AMES SALMONELLA TYPHIMURIUM, Strain/Indicator: YG1026, Metabolic Activation: RAT, LIVER, S-9, PCB, Method: PREINCUBATION) “active; positive”; (Test System: AMES SALMONELLA TYPHIMURIUM, Strain/Indicator: YG1026, Metabolic Activation: S-9, Method: STANDARD PLATE) “inactive; negative”; (Test System: AMES SALMONELLA TYPHIMURIUM, Strain/Indicator: YG1029, Metabolic Activation: NONE, Method: PREINCUBATION) “inactive; negative”; (Test System: AMES SALMONELLA TYPHIMURIUM, Strain/Indicator: YG1029, Metabolic Activation: NONE, Method: STANDARD PLATE) “active; positive”; (Test System: AMES SALMONELLA TYPHIMURIUM, Strain/Indicator: YG1029, Metabolic Activation: RAT LIVER S-9 (10%), PHENOBARBITAL AND 5,6-BENZOFLAVONE, Method: PREINCUBATION) “active; positive”. The mutagenic call was “active; positive” (Test System: AMES SALMONELLA TYPHIMURIUM, Strain/Indicator: YG1029, Metabolic Activation: RAT, LIVER, S-9, AROCLOR 1254, Method: STANDARD PLATE); “active; positive” (Test System: AMES SALMONELLA TYPHIMURIUM, Strain/Indicator: YG1029, Metabolic Activation: RAT, LIVER, S-9, PHENOBARBITAL AND 5,6-BENZOFLAVONE, Method: PREINCUBATION); “active; positive” (Test System: AMES SALMONELLA TYPHIMURIUM, Strain/Indicator: YG1029, Metabolic Activation: S-9, Method: STANDARD PLATE).
